Source: patent US20240262819A1, “NOVEL COMPOUNDS HAVING INHIBITORY ACTIVITY AGAINST GLUCOSYLCERAMIDE SYNTHASE OR PHARMACEUTICALLY ACCEPTABLE SALT THEREOF, PROCESSES FOR PREPARING THE SAME, AND PHARMACEUTICAL COMPOSITIONS COMPRISING THE SAME” (YUHAN CORPORATION, priority 2021, published 2024)

Key:
[1] = molecular target: glucosylceramide synthase (GCS) (Homo sapiens (Human), UniProt Q16739); assay: Evaluation of inhibitory activities against GCS (A549 cell lysate, NBD C6-ceramide, HPLC); type: biochemical
Experimental: The inhibitory activities of the compounds of the present invention against GCS were evaluated, as follows, according to the method described in the known literature (Hayashi Y et al., A sensitive and reproducible assay to measure the activity of glucosylceramide synthase and lactosylceramide synthase using HPLC and fluorescent substrates, Analytical Biochemistry 345 (2005) 181-186). Ibiglustat, known as a GCS inhibitor, was used as a control.
After the cells attached to the culture dish were washed with phosphate buffered saline (PBS), the cells were scraped off with a cell scraper and then centrifuged (4000 rpm, 3 min, 4 °C) to collect the cells in a 50 ml tube. The cell pellets were suspended in a lysis buffer (50 mM HEPES, pH 7.3, containing 1× the protease/phosphatase inhibitor cocktail), lysed by sonication, and then the lysate was centrifuged (13000 rpm, 10 min, 4° C.). The obtained supernatant was used for the quantitative analysis of proteins. The amount of proteins was measured using the BCA protein assay kit, using bovine serum albumin as a standard.
Enzymatic reactions were initiated by sequentially adding the following reaction materials to a 96 deep-well plate. Thereafter, the enzymatic reactions were performed at 37° C. for 90 minutes.
The enzymatic reactions were stopped by adding 100 μl of chloroform/methanol (2:1, v/v). […] The lower layer (50 μl) was transferred to a new 96 deep-well plate and dried with a reduced concentrator.
Lipids were dissolved in 100 μl of isopropyl alcohol/n-hexane/H2O (55:44:1, v/v/v) and then transferred to a glass vial for HPLC (Agilent, 8004-HP-H/i3u). The sample (100 μl) was automatically loaded onto a normal-phase column (Intersil SIL 150A-5, 4.6×250 mm, GL Sciences, Japan) and then eluted at a flow rate of 2.0 ml/min with isopropyl alcohol/n-hexane/H2O (55:44:1, v/v/v). The fluorescence thereof was measured with a fluorescence detector (Agilent, 1260 FLD Spectra), using 470 nm and 530 nm as excitation and emission wavelengths, respectively.
Data analysis was performed by the following equations.
% Area (Sample)=Area (GlcCer)/[Area (Cer)+Area (GlcCer)]×100%
GCS activity=[Area (Sample)−Area (ibiglustat)]/[Area (DMSO)−Area (ibiglustat)]×100
The obtained % GCS activity data was analyzed with the software GraphPad Prism (Ver 5.01) to calculate the IC50 values.

[2] = tested on: GM1 production in Jurkat cells; assay: cells; type: cell-based; settings: Homo sapiens, Jurkat, 72 h

Sequence of glucosylceramide synthase (GCS) (Q16739 whole entry): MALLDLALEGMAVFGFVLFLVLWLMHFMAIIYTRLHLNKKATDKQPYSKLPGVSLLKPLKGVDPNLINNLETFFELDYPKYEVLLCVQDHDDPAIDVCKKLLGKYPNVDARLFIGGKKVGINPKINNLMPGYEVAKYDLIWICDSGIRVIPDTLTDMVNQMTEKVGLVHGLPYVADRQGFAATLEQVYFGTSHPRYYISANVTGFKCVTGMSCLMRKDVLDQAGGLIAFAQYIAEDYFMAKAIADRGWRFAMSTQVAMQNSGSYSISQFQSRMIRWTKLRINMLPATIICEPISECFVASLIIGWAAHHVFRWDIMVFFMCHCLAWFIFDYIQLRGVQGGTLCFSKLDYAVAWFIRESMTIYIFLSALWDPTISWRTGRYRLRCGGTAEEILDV

| Compound | IC50 [1] | IC50 [2] |
| --- | --- | --- |
| CC(C)Oc1cc(F)cc(-c2cc3c(cc2F)[C@H](NC(=O)O[C@@H]2CN4CCC2CC4)C(C)(C)C3)c1 [Example 108, (S)-quinuclidin-3-yl((R)-6-fluoro-5-(3-fluoro-5-isopropoxyphenyl)-2,2-dimethyl-2,3-dihydro-1H-inden-1-yl)carbamate] | 1.06 nM | 31.6 nM |
| CC(C)COc1cc(F)cc(-c2cc3c(cc2F)[C@H](NC(=O)O[C@@H]2CN4CCC2CC4)C(C)(C)C3)c1 [Example 109, (S)-quinuclidin-3-yl((R)-6-fluoro-5-(3-fluoro-5-isobutoxyphenyl)-2,2-dimethyl-2,3-dihydro-1H-inden-1-yl)carbamate] | 0.69 nM | 11.5 nM |
| CC1(C)Cc2cc(-c3cc(F)cc(OCC(F)(F)F)c3)c(F)cc2[C@@H]1NC(=O)O[C@@H]1CN2CCC1CC2 [Example 110, (S)-quinuclidin-3-yl((R)-6-fluoro-5-(3-fluoro-5-(2,2,2-trifluoroethoxy)phenyl)-2,2-dimethyl-2,3-dihydro-1H-inden-1-yl)carbamate] | 1.05 nM | 28 nM |
| CC(C)Oc1cc(-c2cc3c(cc2F)[C@H](NC(=O)O[C@@H]2CN4CCC2CC4)C(C)(C)C3)ccc1Cl [Example 111, (S)-quinuclidin-3-yl((R)-5-(4-chloro-3-isopropoxyphenyl)-6-fluoro-2,2-dimethyl-2,3-dihydro-1H-inden-1-yl)carbamate] | 7.13 nM | 76.2 nM |
| CC(C)COc1cc(Cl)cc(-c2cc3c(cc2F)[C@H](NC(=O)O[C@@H]2CN4CCC2CC4)C(C)(C)C3)c1 [Example 112, (S)-quinuclidin-3-yl((R)-5-(3-chloro-5-isobutoxyphenyl)-6-fluoro-2,2-dimethyl-2,3-dihydro-1H-inden-1-yl)carbamate] | 1.03 nM | 10.6 nM |
| CC(C)Oc1cc(Cl)cc(-c2cc3c(cc2F)[C@H](NC(=O)O[C@@H]2CN4CCC2CC4)C(C)(C)C3)c1 [Example 113, (S)-quinuclidin-3-yl((R)-5-(3-chloro-5-isopropoxyphenyl)-6-fluoro-2,2-dimethyl-2,3-dihydro-1H-inden-1-yl)carbamate] | 0.62 nM | 11.5 nM |
| CC1(C)Cc2cc(-c3ccc(OCC(F)(F)F)cc3Cl)c(F)cc2[C@@H]1NC(=O)O[C@@H]1CN2CCC1CC2 [Example 114, (S)-quinuclidin-3-yl((R)-5-(2-chloro-4-(2,2,2-trifluoroethoxy)phenyl)-6-fluoro-2,2-dimethyl-2,3-dihydro-1H-inden-1-yl)carbamate] | 0.2 nM | 1.7 nM |
| CCc1ccc(-c2cc3c(cc2C)[C@H](NC(=O)O[C@@H]2CN4CCC2CC4)C(C)(C)C3)cc1 [Example 115, (S)-quinuclidin-3-yl((R)-5-(4-ethylphenyl)-2,2,6-trimethyl-2,3-dihydro-1H-inden-1-yl)carbamate] | 0.43 nM | 5.09 nM |
| CCCc1ccc(-c2cc3c(cc2C)[C@H](NC(=O)O[C@@H]2CN4CCC2CC4)C(C)(C)C3)cc1 [Example 116, (S)-quinuclidin-3-yl((R)-2,2,6-trimethyl-5-(4-propylphenyl)-2,3-dihydro-1H-inden-1-yl)carbamate] | 0.31 nM | 3.82 nM |
| Cc1cc2c(cc1-c1ccc(C(C)C)cc1)CC(C)(C)[C@H]2NC(=O)O[C@@H]1CN2CCC1CC2 [Example 117, (S)-quinuclidin-3-yl((R)-5-(4-isopropylphenyl)-2,2,6-trimethyl-2,3-dihydro-1H-inden-1-yl)carbamate] | 0.47 nM | 4.42 nM |
| CCCCc1ccc(-c2cc3c(cc2C)[C@H](NC(=O)O[C@@H]2CN4CCC2CC4)C(C)(C)C3)cc1 [Example 118, (S)-quinuclidin-3-yl((R)-5-(4-butylphenyl)-2,2,6-trimethyl-2,3-dihydro-1H-inden-1-yl)carbamate] | 0.2 nM | 1.55 nM |
| Cc1cc2c(cc1-c1ccc(CC(C)C)cc1)CC(C)(C)[C@H]2NC(=O)O[C@@H]1CN2CCC1CC2 [Example 119, (S)-quinuclidin-3-yl((R)-5-(4-isobutylphenyl)-2,2,6-trimethyl-2,3-dihydro-1H-inden-1-yl)carbamate] | 0.23 nM | 4.95 nM |
| CCOc1ccc(-c2cc3c(cc2C)[C@H](NC(=O)O[C@@H]2CN4CCC2CC4)C(C)(C)C3)cc1 [Example 120, (S)-quinuclidin-3-yl((R)-5-(4-ethoxyphenyl)-2,2,6-trimethyl-2,3-dihydro-1H-inden-1-yl)carbamate] | 0.31 nM | 7.66 nM |
| CCCOc1ccc(-c2cc3c(cc2C)[C@H](NC(=O)O[C@@H]2CN4CCC2CC4)C(C)(C)C3)cc1 [Example 121, (S)-quinuclidin-3-yl((R)-2,2,6-trimethyl-5-(4-propoxyphenyl)-2,3-dihydro-1H-inden-1-yl)carbamate] | 0.28 nM | 2.79 nM |
| Cc1cc2c(cc1-c1ccc(OC(C)C)cc1)CC(C)(C)[C@H]2NC(=O)O[C@@H]1CN2CCC1CC2 [Example 122, (S)-quinuclidin-3-yl((R)-5-(4-isopropoxyphenyl)-2,2,6-trimethyl-2,3-dihydro-1H-inden-1-yl)carbamate] | 0.34 nM | 3.66 nM |
| CCCCOc1ccc(-c2cc3c(cc2C)[C@H](NC(=O)O[C@@H]2CN4CCC2CC4)C(C)(C)C3)cc1 [Example 123, (S)-quinuclidin-3-yl((R)-5-(4-butoxyphenyl)-2,2,6-trimethyl-2,3-dihydro-1H-inden-1-yl)carbamate] | 0.24 nM | 1.26 nM |
| Cc1cc2c(cc1-c1ccc(OCC(C)C)cc1)CC(C)(C)[C@H]2NC(=O)O[C@@H]1CN2CCC1CC2 [Example 124, (S)-quinuclidin-3-yl((R)-5-(4-isobutoxyphenyl)-2,2,6-trimethyl-2,3-dihydro-1H-inden-1-yl)carbamate] | 0.2 nM | 1.13 nM |
| Cc1cc2c(cc1-c1ccc(OC(C)C)c(Cl)c1)CC(C)(C)[C@H]2NC(=O)O[C@@H]1CN2CCC1CC2 [Example 125, (S)-quinuclidin-3-yl((R)-5-(3-chloro-4-isopropoxyphenyl)-2,2,6-trimethyl-2,3-dihydro-1H-inden-1-yl)carbamate] | 2.17 nM | 10.8 nM |
| COc1ccc(-c2cc3c(cc2C)[C@H](NC(=O)O[C@@H]2CN4CCC2CC4)C(C)(C)C3)c(F)c1 [Example 126, (S)-quinuclidin-3-yl((R)-5-(2-fluoro-4-methoxyphenyl)-2,2,6-trimethyl-2,3-dihydro-1H-inden-1-yl)carbamate] | 1.48 nM | 18 nM |
| CCOc1cc2c(cc1-c1ccc(CC)cc1)CC(C)(C)[C@H]2NC(=O)O[C@@H]1CN2CCC1CC2 [Example 127, (S)-quinuclidin-3-yl((R)-6-ethoxy-5-(4-ethylphenyl)-2,2-dimethyl-2,3-dihydro-1H-inden-1-yl)carbamate] | 1.82 nM | 8.02 nM |
| CCCc1ccc(-c2cc3c(cc2OCC)[C@H](NC(=O)O[C@@H]2CN4CCC2CC4)C(C)(C)C3)cc1 [Example 128, (S)-quinuclidin-3-yl((R)-6-ethoxy-2,2-dimethyl-5-(4-propylphenyl)-2,3-dihydro-1H-inden-1-yl)carbamate] | 1.8 nM | 6.49 nM |
| CCOc1cc2c(cc1-c1ccc(C(C)C)cc1)CC(C)(C)[C@H]2NC(=O)O[C@@H]1CN2CCC1CC2 [Example 129, (S)-quinuclidin-3-yl((R)-6-ethoxy-5-(4-isopropylphenyl)-2,2-dimethyl-2,3-dihydro-1H-inden-1-yl)carbamate] | 2.31 nM | 8.11 nM |
| CCCCc1ccc(-c2cc3c(cc2OCC)[C@H](NC(=O)O[C@@H]2CN4CCC2CC4)C(C)(C)C3)cc1 [Example 130, (S)-quinuclidin-3-yl((R)-5-(4-butylphenyl)-6-ethoxy-2,2-dimethyl-2,3-dihydro-1H-inden-1-yl)carbamate] | 0.75 nM | 1.53 nM |
| CCOc1cc2c(cc1-c1ccc(CC(C)C)cc1)CC(C)(C)[C@H]2NC(=O)O[C@@H]1CN2CCC1CC2 [Example 131, (S)-quinuclidin-3-yl((R)-6-ethoxy-5-(4-isobutylphenyl)-2,2-dimethyl-2,3-dihydro-1H-inden-1-yl)carbamate] | 2.01 nM | 6.47 nM |
| CCOc1ccc(-c2cc3c(cc2OCC)[C@H](NC(=O)O[C@@H]2CN4CCC2CC4)C(C)(C)C3)cc1 [Example 132, (S)-quinuclidin-3-yl((R)-6-ethoxy-5-(4-ethoxyphenyl)-2,2-dimethyl-2,3-dihydro-1H-inden-1-yl)carbamate] | 1.6 nM | 7.62 nM |
